Test results as given in patent publication US7867749B2, “Nematode phosphoethanolamine N-methyltransferase-like sequences” (priority 2006, dated 2011).
Where two headings read alike, the source gives them in different places.

Assays:
M. javanica = experiment: Nematicidal activity against plant parasites, J2 larvae soak; assay type: in vivo, Meloidogyne javanica; details: 15 mM; J2 larvae soaked 48 hours
Protocol: (§1) The ethanolamine-like compounds mentioned above are also nematicidal against the plant parasites Meloidogyne incongnita and Meloidogyne javanica. Between 25 and 50 J2 stage larvae were soaked in the compounds for 48 hours at the indicated concentrations. After the treatment, the larvae were moved to an agar plate containing NGM. Worms that crawl away from the application spot are scored as alive while those that remain at the application spot are scored as dead. The three compounds that were nematicidal against C. elegans were also nematicidal against M. incognita and M. javanica

Cephalobus sp. = experiment: Nematicidal activity against other nematodes; assay type: in vivo
M. incognita = assay type: in vivo, Meloidogyne incongnita; details: J2 larvae soaked 48 hours
Protocol: as §1

C. elegans [1] = experiment: Nematicidal activity of ethanolamine-like compounds against C. elegans; assay type: in vivo, Caenorhabditis elegans; details: P0 L4 larva; for F1 PHENOTYPE: 23° C.; for nematicidal activity against C. elegans: various concentrations
A. ellesmerensis = experiment: Nematicidal activity against other nematodes; assay type: in vivo, Acrobiloides ellesmerensis
[2] = molecular target: T1, C. elegans PEAMT2 (DIV3202) (Caenorhabditis elegans, UniProt Q22993); experiment: Km determination, radiochemical PEAMT assay; assay type: biochemical; details: 118 nM DIV3202H+
T1 sequence (Q22993 1-437): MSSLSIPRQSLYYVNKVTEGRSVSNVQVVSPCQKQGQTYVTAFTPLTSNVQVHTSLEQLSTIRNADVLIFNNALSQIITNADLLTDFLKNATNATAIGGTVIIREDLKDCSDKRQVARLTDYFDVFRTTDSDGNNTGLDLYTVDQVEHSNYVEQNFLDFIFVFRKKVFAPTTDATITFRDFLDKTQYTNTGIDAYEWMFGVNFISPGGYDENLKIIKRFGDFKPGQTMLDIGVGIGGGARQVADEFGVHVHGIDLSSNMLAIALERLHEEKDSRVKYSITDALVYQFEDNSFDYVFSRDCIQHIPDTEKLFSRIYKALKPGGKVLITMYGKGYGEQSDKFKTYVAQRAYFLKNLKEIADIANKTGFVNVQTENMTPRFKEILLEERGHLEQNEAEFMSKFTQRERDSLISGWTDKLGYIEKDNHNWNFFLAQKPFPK

C. elegans [3] = experiment: Chemical rescue of the PEAMT2 RNAi-generated phenotype (feeding); assay type: in vivo, Caenorhabditis elegans; details: for rescue of PEAMT2 RNAi phenotype: chemical complementation, singly or in combination, concentration not given
C. elegans [4] = experiment: Chemical rescue of the PEAMT1 RNAi-generated phenotype (feeding); assay type: in vivo, Caenorhabditis elegans; details: for rescue of PEAMT1 mutants (RNAi-generated): 5 mM; for suppression of PEAMT1 larval lethal RNAi phenotype: chemical complementation, concentration not given
[5] = tested on: isolated intestinal epithelial cells; details: cited from earlier work
[6] = tested on: everted hamster jejunal and ileal segments; details: cited from earlier work
[7] = molecular target: T2, C. elegans PEAMT1 (DIV3441) (Caenorhabditis elegans, UniProt Q23552); experiment: Km determination, radiochemical PEAMT assay; assay type: biochemical
T2 construct: HIS tag (pET28a) (N); made in house; host or cells: bacterial culture, IPTG-induced pET28a
T2 sequence (Q23552 1-475): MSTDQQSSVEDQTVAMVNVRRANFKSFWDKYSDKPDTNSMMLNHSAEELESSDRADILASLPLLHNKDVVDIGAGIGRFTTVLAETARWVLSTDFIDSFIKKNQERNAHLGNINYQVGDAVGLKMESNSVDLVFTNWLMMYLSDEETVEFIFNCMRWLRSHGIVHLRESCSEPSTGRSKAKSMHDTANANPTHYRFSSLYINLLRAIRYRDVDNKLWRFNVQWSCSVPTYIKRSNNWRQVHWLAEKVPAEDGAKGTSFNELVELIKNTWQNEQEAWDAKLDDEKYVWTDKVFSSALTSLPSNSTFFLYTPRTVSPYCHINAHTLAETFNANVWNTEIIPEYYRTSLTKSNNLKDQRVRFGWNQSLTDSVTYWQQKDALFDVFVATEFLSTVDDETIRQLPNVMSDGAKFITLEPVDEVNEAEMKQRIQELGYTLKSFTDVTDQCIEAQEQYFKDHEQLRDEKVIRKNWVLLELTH

[8] = P0 L4, 5 or 10 mM in plate media

Compound: CC(C)(C)NCCO [2-(tert-butylamino)ethanol]
- % DEAD WORMS (M. javanica): 50%
- F1 PHENOTYPE (Cephalobus sp.; 10 mM): L1/L2 arrest/lethality
- % DEAD WORMS (M. incognita; 5 mM): 50%
- F1 PHENOTYPE (C. elegans [1]; 10 mM): L1/L2 arrest/lethality
- nematicidal activity against C. elegans (C. elegans [1]): showed nematicidal activity
- F1 PHENOTYPE (A. ellesmerensis; 10 mM): L1/L2 arrest/lethality

Compound: NCC(O)c1ccccc1 (stereo not drawn) [2-amino-1-phenylethanol]
- F1 PHENOTYPE (C. elegans [1]; 25 mM): Wild-type development
- nematicidal activity against C. elegans (C. elegans [1]): no nematicidal effect

Compound: N[C@@H](CO)Cc1ccccc1 [D-phenylalaninol]
- F1 PHENOTYPE (Cephalobus sp.; 12.5 mM): L1/L2 arrest/lethality
- % DEAD WORMS (M. incognita; 25 mM): 100%
- F1 PHENOTYPE (C. elegans [1]; 10 mM): L1/L2 arrest/lethality
- nematicidal activity against C. elegans (C. elegans [1]): showed nematicidal activity
- F1 PHENOTYPE (A. ellesmerensis; 12.5 mM): L1/L2 arrest/lethality

Compound: CN(C)CCO [DME, dimethylethanolamine]
- Km ([2]; 1 mM SAM, 0.05-10 mM DME, read-out: Km of DME for DIV3202H+ (PEAMT2H+; intact HIS tag)): 1.39 ± 0.26 µM
- F1 phenotype, PEAMT2 dsRNA (C. elegans [3]; P0 Dauer, 10 mM in plate media): Sterility
- F1 phenotype, PEAMT2 dsRNA (C. elegans [3]; P0 L1, 10 mM in plate media): Sterility
- F1 phenotype, PEAMT2 dsRNA (C. elegans [3]; [8]): L1/L2 arrest/lethality
- rescue of PEAMT2 RNAi phenotype (C. elegans [3]): not
- rescue of PEAMT1 mutants (RNAi-generated) (C. elegans [4]): rescued
- rescue of sterility associated with PEAMT1 RNAi (C. elegans [4]; Five mM): rescues the sterility
- F1 phenotype, PEAMT1 dsRNA (C. elegans [4]; P0 Dauer, 10 mM in plate media): Fertile adults
- F1 phenotype, PEAMT1 dsRNA (C. elegans [4]; P0 L1, 10 mM in plate media): Fertile adults
- F1 phenotype, PEAMT1 dsRNA (C. elegans [4]; [8]): Fertile adults

Compound: CNCCO [MME, monomethylethanolamine]
- Km ([2]; 1 mM SAM, 0.15-20 mM MME, read-out: Km of MME for DIV3202H+ (PEAMT2H+; intact HIS tag)): 2.1 ± 0.97 µM
- F1 phenotype, PEAMT2 dsRNA (C. elegans [3]; [8]): L1/L2 arrest/lethality
- rescue of PEAMT2 RNAi phenotype (C. elegans [3]): not
- rescue of PEAMT1 mutants (RNAi-generated) (C. elegans [4]): rescued
- F1 phenotype, PEAMT1 dsRNA (C. elegans [4]; [8]): Fertile adults
- suppression of PEAMT1 larval lethal RNAi phenotype (C. elegans [4]): suppressed

Compound: OCCNc1ccccc1 [N-(2-hydroxyethyl)aniline]
- F1 PHENOTYPE (C. elegans [1]; 10 mM): L1/L2 arrest/lethality
- nematicidal activity against C. elegans (C. elegans [1]): showed nematicidal activity

Compound: CCCCCC[C@@H](O)C/C=C\CCCCCCCC(=O)O [Ricinoleic acid]
- cytotoxicity [5]: cytotoxic
- effect on water and electrolyte absorption [6]: inhibitory effect

Compound: C[S+](CC[C@H](N)C(=O)O)C[C@H]1O[C@@H](n2cnc3c(N)ncnc32)[C@H](O)[C@@H]1O (stereo partly drawn) [S-adenosyl-L-methionine]
- Km ([2]; 10 mM DME, 0.004-3 mM SAM, read-out: Km of S-adenosyl-L-methionine for DIV3202H+ (PEAMT2H+; intact HIS tag)): 167 ± 34.6 µM
- Km ([2]; 30 mM MME, 0.004-3 mM SAM, read-out: Km of S-adenosyl-L-methionine for DIV3202H+ (PEAMT2H+; intact HIS tag)): 163 ± 42.4 µM
- Km ([7]; read-out: Km of S-adenosyl-L-methionine for DIV3441H+ (PEAMT1H+; intact HIS tag)): 62.5 ± 9.68 µM
- Km ([7]; read-out: Km of S-adenosyl-L-methionine for DIV3441H− (PEAMT1H−; cleaved HIS tag)): 146 ± 31.1 µM

Compound: NCCO [ethanolamine (EA), ethanolamine]
- F1 phenotype, PEAMT2 dsRNA (C. elegans [3]; P0 L4, 10 mM in plate media): L1/L2 arrest/lethality
- rescue of PEAMT2 RNAi phenotype (C. elegans [3]): not
- F1 phenotype, PEAMT1 dsRNA (C. elegans [4]; P0 L4, 10 mM in plate media): L1/L2 arrest/lethality
- suppression of PEAMT1 larval lethal RNAi phenotype (C. elegans [4]): not

Compound: CCCCCC[C@@H](O)C/C=C\CCCCCCCC(=O)OC [methyl ester of ricinoleic acid]
- effect on water and electrolyte absorption [6]: ineffective
